# Experimental data as given in ChEMBL document CHEMBL1125499, “Enantiomeric N-substituted N-normetazocines: a comparative study of affinities at sigma, PCP, and mu opioid receptors” (J Med Chem, 1992).
# Key:
# [1] = Binding affinity against sigma opioid receptor using [3H]pentazocine as radioligand.
# Mu-type opioid receptor = Mu-type opioid receptor (Rattus norvegicus, UniProt P33535); assay: Binding affinity against opioid receptor mu using [3H]-DAMGO as radioligand.
# [2] = Ratio of binding affinities of pcp receptor(ki(nM)) to sigma opioid receptor(ki(nM))
# [3] = Binding affinity against PCP receptor using [3H]TCP as radioligand.
# [4] = Binding affinity against sigma opioid receptor using [3H](+)-3-PPP as radioligand.
# Chain of Mu-type opioid receptor (P33535 whole entry): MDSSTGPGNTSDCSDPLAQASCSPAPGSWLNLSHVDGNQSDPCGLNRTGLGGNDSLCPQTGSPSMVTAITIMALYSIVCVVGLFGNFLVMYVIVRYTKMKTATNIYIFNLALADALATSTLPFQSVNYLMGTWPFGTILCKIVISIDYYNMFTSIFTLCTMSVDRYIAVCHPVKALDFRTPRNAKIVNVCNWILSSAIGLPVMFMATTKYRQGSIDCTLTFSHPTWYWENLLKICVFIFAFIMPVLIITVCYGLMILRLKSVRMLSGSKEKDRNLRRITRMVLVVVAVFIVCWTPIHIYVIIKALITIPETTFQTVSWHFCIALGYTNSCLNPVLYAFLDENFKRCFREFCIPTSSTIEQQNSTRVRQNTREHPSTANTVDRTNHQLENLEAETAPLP
SMILES,Ki [1],Ki (Mu-type opioid receptor),Ratio [2],Ki [3],Ki [4]
C[C@H]1[C@H]2Cc3ccc(O)cc3[C@]1(C)CCN2CCc1ccccc1,61.7 nM,0.2 nM,30.5,1880 nM,–
C=C[C@@H](C)N1CC[C@]2(C)c3cc(O)ccc3C[C@@H]1[C@@H]2C,–,5.9 nM,–,1900 nM,–
CC(C)=CCN1CC[C@@]2(C)c3cc(O)ccc3C[C@@H]1[C@@H]2C,–,13 nM,10.1,842 nM,–
C[C@H]1[C@H]2Cc3ccc(O)cc3[C@@]1(C)CCN2CCCCc1ccccc1,85.2 nM,4 nM,70,5960 nM,–
C[C@H]1[C@H]2Cc3ccc(O)cc3[C@@]1(C)CCN2Cc1ccccc1,36.5 nM,97 nM,–,6500 nM,–
C[C@@H]1[C@@H]2Cc3ccc(O)cc3[C@]1(C)CCN2CCCCCc1ccccc1,2.64 nM,260 nM,> 3790,> 10000 nM,–
C=C[C@@H](C)N1CC[C@@]2(C)c3cc(O)ccc3C[C@H]1[C@H]2C,–,690 nM,–,200 nM,–
C[C@@H]1[C@@H]2Cc3ccc(O)cc3[C@]1(C)CCN2CCCc1ccccc1,1.15 nM,343 nM,8440,9700 nM,–
C[C@@H]1[C@@H]2Cc3ccc(O)cc3[C@]1(C)CCN2Cc1ccccc1,0.67 nM,1610 nM,–,> 10000 nM,–
C=C[C@H](C)N1CC[C@]2(C)c3cc(O)ccc3C[C@@H]1[C@@H]2C,–,3 nM,–,2200 nM,–
C[C@@H]1[C@@H]2Cc3ccc(O)cc3[C@]1(C)CCN2CCCCc1ccccc1,3.23 nM,270 nM,3100,> 10000 nM,–
C[C@H]1[C@H]2Cc3ccc(O)cc3[C@@]1(C)CCN2C,–,11 nM,–,1190 nM,–
C[C@@H]1[C@@H]2Cc3ccc(O)cc3[C@@]1(C)CN2CC1CC1,17.2 nM,1240 nM,8.9,153 nM,–
C/C=C/CN1CC[C@@]2(C)c3cc(O)ccc3C[C@H]1[C@H]2C,–,5620 nM,–,179 nM,52.5 nM
C/C=C\CN1CC[C@@]2(C)c3cc(O)ccc3C[C@H]1[C@H]2C,–,1690 nM,–,381 nM,–
C[C@@H]1[C@@H]2Cc3ccc(O)cc3[C@]1(C)CCN2C/C=C/Cl,10.5 nM,1980 nM,24,250 nM,–
C[C@H]1[C@H]2Cc3ccc(O)cc3[C@@]1(C)CCN2CCCc1ccccc1,38.6 nM,20 nM,93.3,3600 nM,–

SMILES,Ki [1],Ki (Mu-type opioid receptor),Ratio [2],Ki [3],Ki [4]
C/C=C\CN1CC[C@]2(C)c3cc(O)ccc3C[C@@H]1[C@@H]2C,–,11 nM,–,1120 nM,460 nM
C[C@H]1[C@H]2Cc3ccc(O)cc3[C@@]1(C)CCN2CCCCCc1ccccc1,38.5 nM,68 nM,260,> 10000 nM,–
C/C=C/CN1CC[C@]2(C)c3cc(O)ccc3C[C@@H]1[C@@H]2C,–,9 nM,–,347 nM,–
CC(C)CCN1CC[C@]2(C)c3cc(O)ccc3C[C@@H]1[C@@H]2C,8.74 nM,4.9 nM,313,2740 nM,–
C=CCN1CC[C@@]2(C)c3cc(O)ccc3C[C@H]1[C@H]2C,–,> 10000 nM,–,225 nM,–
CC(C)=CCN1CC[C@]2(C)c3cc(O)ccc3C[C@H]1[C@H]2C [(+)-PENTAZOCINE],–,–,1300,4040 nM,–
C[C@H]1[C@H]2Cc3ccc(O)cc3[C@@]1(C)CCN2C/C=C/Cl,403 nM,1.5 nM,1.2,470 nM,–
C=C[C@H](C)N1CC[C@@]2(C)c3cc(O)ccc3C[C@H]1[C@H]2C,–,2270 nM,–,90 nM,159 nM
C[C@H]1[C@H]2Cc3ccc(O)cc3[C@]1(C)CCN2CC1CC1 [CYCLAZOCINE],–,0.18 nM,–,107 nM,–
C[C@H]1[C@H]2Cc3ccc(O)cc3[C@@]1(C)CCN2,5580 nM,23 nM,–,197 nM,–
CC#CCN1CC[C@]2(C)c3cc(O)ccc3C[C@@H]1[C@@H]2C,–,5.1 nM,–,360 nM,–
C=CCN1CC[C@]2(C)c3cc(O)ccc3C[C@@H]1[C@@H]2C,> 3000 nM,3.6 nM,–,504 nM,–
CC#CCN1CC[C@@]2(C)c3cc(O)ccc3C[C@H]1[C@H]2C,–,1000 nM,–,1230 nM,93.7 nM
C[C@@H]1[C@@H]2Cc3ccc(O)cc3[C@]1(C)CCN2,–,470 nM,–,30 nM,–
C[C@@H]1[C@@H]2Cc3ccc(O)cc3[C@]1(C)CCN2C,–,4970 nM,–,41 nM,–
CC(C)CCN1CC[C@@]2(C)c3cc(O)ccc3C[C@H]1[C@H]2C,2.25 nM,3500 nM,> 4440,> 10000 nM,–
C[C@@H]1[C@@H]2Cc3ccc(O)cc3[C@@]1(C)CCN2CCc1ccccc1,3.9 nM,55 nM,> 2560,> 10000 nM,–
